Measured values from patent US5321030A, “Creatine analogs having antiviral activity” (priority 1991, dated 1994).
Converted amounts (≈) assume the structure as drawn. “And” between values parts separate entries of the source, which are not always exact repeats. Equal values may be shown once. Read-outs that look alike come from different tables or passages of the source.

How the values were obtained:
[1] = Dietary feeding of cyclocreatine, tolerance and uptake; conditions: mice, up to 1% of diet for 2 weeks or over 4 weeks
[2] = newly hatched chicks, 1% in diet, with antibiotics; cited from earlier work
[3] = system: Influenza A/Port Chalmers/1/73 (H3 N2); assay: CPE-reduction assay, Influenza A in MDCK cells; format: cell-based; conditions: 62.5 μg/ml-4 mg/ml
[4] = Cytotoxicity in plaque reduction assay, Hs68 cells; format: cell-based; conditions: human, Table 5, read-out: CD50 (the source's name)
Experimental: Cytotoxicity was determined by examination of cells (located away from plaques) in infected wells which had been treated with drug.

[5] = system: Murine Cytomegalovirus (MCMV), strain Smith; assay: Plaque reduction, murine cytomegalovirus in C127I cells; format: cell-based; conditions: Murid betaherpesvirus 1; 10 mg/ml
Adenovirus type 5 = assay: CPE assay, adenovirus in DU 145 cells; format: cell-based; conditions: 0.3125-10 mg/ml, FIG. 15A
Experimental: Adenovirus type 5 was obtained from the ATCC. DU 145 cells were obtained from the American Type Culture Collection. Cells were infected with virus and cyclocreatine was assayed for antiviral activity using the cytopathic effect (CPE) assay essentially as described in Example 1.

Vero cells = conditions: monkey
[6] = Phosphorylation of cyclocreatine in cultured cells
[7] = system: Guinea Pig Cytomegalovirus, Strain 22122; assay: CPE reduction assay, guinea pig cytomegalovirus in GPE cells; format: cell-based; set-up: TI50 (CD50 ÷ ED50): unit not given here; conditions: for Average CPE: virus controls 4.0
[8] = system: Herpes Simplex Virus, Type 1, strain BW10168 (TK-); assay: microbe, parasite or virus in culture; format: cell-based; set-up: TI50 (CD50 ÷ ED50): unit not given beside the values; conditions: for Average CPE: virus controls 4.0; for EC50: Human alphaherpesvirus 1, Vero

For `NC1=NCCN1CC(=O)O` [cyclocreatine, 1-carboxymethyl-2-iminoimidazolidine], the “tolerance of dietary cyclocreatine” value [1] is given as “without gross adverse effects”, the “tolerance of dietary cyclocreatine” value [2] is given as “without significant mortality” and the antiviral activity [3] is given as “did not display significant antiviral activity”. The CC50 [4] was greater than 4000 µg/mL, the inhibition at 10000 µg/mL [5] was 53% and the “effect on cytopathic effect” value (Adenovirus type 5) was “inhibited the cytopathic effect”. The CC50 (Vero cells) was greater than 28 mM, the CD50 (Vero cells) was “greater than 4 mg/ml” and the metabolised ([6]; a2058 cells) was 13%. For the same compound, the metabolised ([6]; du 145 cells) was 76%, the metabolised ([6]; me180 cells) was 85% and the metabolised ([6]; vero cells) was 68%. The “Average CPE” value ([7]; AM-285 156.25 μg/ml) was 4.0, the “Average CPE” value ([7]; AM-285 312.5 μg/ml) was 4.0 and the “Average CPE” value ([7]; AM-285 625 μg/ml) was 3.5. The “Average CPE” value ([7]; AM-285 1250 μg/ml) was 3.3, the “Average CPE” value ([7]; AM-285 2500 μg/ml) was 2.5 and the “Average CPE” value ([7]; AM-285 5000 μg/ml) was 1.7. For the same compound, the “Average CPE” value ([7]; AM-285 10000 μg/ml) was 0.0, the EC50 ([7]; Caviid betaherpesvirus 2, GPE cells, Table 3, read-out: ED50 (the source's name)) was 3270 µg/mL (≈ 22.9 mM) and the “TI50 (CD50 ÷ ED50)” value ([7]; GPE cells, Table 3) was greater than 3.0. For the same compound, the “effect on CPE” value ([7]; between 0.625 and 5.0 mg/ml) was “An inhibitory effect”, the “Average CPE” value ([8]; AM-285 62.5 μg/ml) was 3.2 and the “Average CPE” value ([8]; AM-285 125 μg/ml) was 3.5. The “Average CPE” value ([8]; AM-285 260 μg/ml) was 3.2, the “Average CPE” value ([8]; AM-285 500 μg/ml) was 1.7 and the “Average CPE” value ([8]; AM-285 1000 μg/ml) was 1.8. The “Average CPE” value ([8]; AM-285 2000 μg/ml) was 2.0, the “Average CPE” value ([8]; AM-285 4000 μg/ml) was 0.7 and the EC50 ([8]; read-out: ED50, Vero cells, Table 8) was 384 µg/mL (≈ 2.69 mM). The EC50 ([8]; read-out: ED50, as stated in text) was ~900 µg/mL and ~6.3 mM and the “TI50 (CD50 ÷ ED50)” value ([8]; Vero cells, Table 8) was greater than 4.5.
